For one data set, the target named is T1, pyrene-labeled actin (Oryctolagus cuniculus, UniProt P68135).
T1 construct: purchased Cytoskeleton, Inc
Put plainly: in vitro actin depolymerization assay (pyrene excimer fluorescence, Cytoskeleton kit). In kind it is biochemical. Conditions: polymerized pyrene-actin, 0–50 μM, rates by linear regression, normalized to buffer-only control, averaged; read-out: EC50 for inhibition of actin depolymerization (initial depolymerization rate vs concentration). As for the experimental part:
An actin polymerization biochemistry kit (Cytoskeleton, Inc.) was used to assay the bioactivity of the phalloidin conjugates. All experiments were performed in a 96-well format and read on a fluorescent plate reader (Biotek Synergy II). Actin-pyrene monomers formed filamentous actin by using the supplied polymerization buffer, which caused pyrene excimer fluorescence (excitation 365 nm and emission 407 nm). Serial dilutions of phalloidin or TP2-SMCC-Ph were added to the filamentous actin-pyrene as well as a no peptide control. A supplied depolymerization buffer was then added to samples, and loss of fluorescence was monitored on the plate reader as a function of time. […] Calculated rates are normalized to the buffer-only controls.
The 7-position of natural phalloidin is a 4,5-dihydroxy leucine residue. […] Pyrene excimer fluorescence is measured such that depolymerization will drive a decrease in intensity. Polymerized actin, with added phalloidin or TP2-SMCC-Ph, is triggered to depolymerize at time zero, and the rate of excimer decrease is measured.
Figure 3 Control experiments. […] Pyrene excimer fluorescence was excited at 390 nm and monitored at 460 nm over 1 h. (B) Initial depolymerization rates from experiments such as the one shown in Panel A were measured by linear regression and averaged. […] Right axis: washed human red blood cells were incubated for 1 h, and hemoglobin release was measured.

A further data set concerns HeLa cells. Kind of data set: cytotoxicity, cell viability by Alamar Blue. In kind it is cell-based, human. To be noted: Alamar Blue fluorescence after 72 h. As to the method: Validated HeLa human […] cancer cells and HT1080 human epithelial fibrosarcoma cells were obtained from ATCC and were used at a low passage number without modification. All cells were maintained in T75 flasks in an incubator at 37 °C, 5% CO2 in complete media: DMEM containing 10% (%v/v) FBS, glucose, sodium pyruvate, L-glutamine, nonessential amino acids, and antibiotics. Serum-free media (SFM) was prepared in the same fashion as complete media but lacked FBS. Cells were maintained daily with two DPBS washes and replacement of complete media. When ≥90% confluent, cells were passaged using trypsin and seeded into another T75 flask and/or 96-well plates.
(§1) Figure 3 Control experiments. (A) Example in vitro actin depolymerization assay. Depolymerization of pyrene-labeled actin from Cytoskeleton, Inc. was initiated at time zero in the presence of 0–50 μM TP2-S-Ph conjugate. Pyrene excimer fluorescence was excited at 390 nm and monitored at 460 nm over 1 h. (B) Initial depolymerization rates from experiments such as the one shown in Panel A were measured by linear regression and averaged. We show depolymerization rates versus concentration for phalloidin and for the D-TP2-S-Ph conjugate. EC50 values are ∼3 μM for phalloidin and ∼6 μM for D-TP2-S-Ph. (C) Cytotoxicity and hemolysis caused by TP2, phalloidin, and the TP2-S-Ph chimera. Left axis: HeLa cells were incubated with the indicated concentration of compound for 4 h, and cell viability was measured by Alamar Blue fluorescence after 72 h. Right axis: washed human red blood cells were incubated for 1 h, and hemoglobin release was measured.
(§2) To further test for indirect cytotoxicity, we incubated HeLa cells with TP2-S-Ph, TP2 alone, and free phalloidin for 72 h, Figure 3C, and measured cell viability using Alamar Blue.

For a further data set, the system named is human red blood cells. Put plainly: hemolysis, hemoglobin release. It counts as cell-based. Conditions: washed human red blood cells, incubated 1 h. As for the experimental part:
as §1, §2

Another data set deals with HT1080 cells. Kind of data set: wound-healing scratch (cell migration) assay. It counts as cell-based, human. Details: cell migration: dose or concentration left out as unconfirmed. As to the method: A total of 30,000 HT1080 cells were seeded into each well of a 96-well plate in complete media and incubated for 24 h. Cells were washed with DPBS and incubated in serum-free media (SFM) for the next 48 h. Treatment with TP1/2/3-S-Ph, cytochalasin D, or media control, containing DMSO equal to treatment (% v/v), was done for four h at 37 °C. Cells were washed three times with DPBS and then scratched with 10 μL pipet tips on a multichannel pipettor. Evaluation of area closure was performed by phase contrast microscopic imaging of each well at 4× magnification, hourly, for 24 h with the Biotek Cytation 5 cell imaging reader and the BioSpa 8 automated incubator. Only the linear portion of the time course, up to 8 h, was used for analysis. For each condition studied, the scratch assay was performed in at least 6 biologically independent experiments, and each experiment consisted of 2–3 technical replicates.
ImageJ was used to trace the perimeter of each scratch. The gap area (GA) of each scratch was generated with ImageJ via batch processing with a lower threshold of 0 and an upper threshold of 60. The gap area for treatment groups was averaged and relativized as follows: [drawing 1]
Mean relative GA was plotted over time, and the absolute value of the slope from 1 to 8 h for each treatment was determined. Lastly, slopes were normalized against SFM controls.
We performed 4 h incubation in the presence of peptide chimeras and then washed the cells with PBS three times prior to conducting the scratch-closing measurements. This approach enabled us to assay only for rapid and nonreversible delivery of phalloidin cargo to the cytosol of cells by the peptides. The control compound cytochalasin D needed to be maintained at the noted concentration throughout the entire incubation time because, unlike the peptides, it is readily washed out of cells and has no effect if incubated for 4 h and washed away.
Figure 4 Example scratch assay. For this assay, a total of 30,000 HT1080 cells were seeded into each well of a 96-well cell culture plate in complete media and incubated for 24 h. Cells were washed with DPBS and incubated in serum-free media (SFM) for the next 48 h. Treatment with serum-free media, cytochalasin D, or peptide was done for 4 h at 37 °C. Cells were washed three times with DPBS and then scratched with 10 μL pipet tips on a multichannel pipettor. Cytochalasin D was replaced at the intended concentration, but the peptide was not. Evaluation of wound area was performed by phase contrast microscopic imaging of each well at 4× magnification with a BioTek Cytation 5 cell imaging reader and the BioSpa 8 automated incubator. Here, we show example images from a typical scratch assay taken 0, 1, 3, and 6 h after scratching a channel in the middle of the surface. Red lines show the edge of the wound identified by ImageJ and were used to calculate the total wound area from each image.
Migration rates were normalized to that of the NT/SFM group, which was always the fastest closing group. Each experiment was repeated in at least 6 biologically independent experiments, and each biologically independent experiment was repeated in 2–3 technical replicates.

Where [1] appears, read: 100 nM continuous, HT1080, serum-free media.

From paper PMC10882622, “Cytosolic Delivery of Bioactive Cyclic Peptide Cargo by Spontaneous Membrane Translocating Peptides” (ACS Omega, 2024) come the findings set out here.

Values joined by “and” are separate entries in the source; they are usually repeats but may differ in a detail not shown here. Equal values may be shown once. Numbered stars: 1 amine (or outer) side, 2 acyl side, 3 side chain; on linkers, the order of the positions; unused ones are H or OH. Bridge positions count the residues as written; N and C are the ends. Square brackets hold non-standard residues; d marks the D form. Peptide text beside a SMILES is read from it. I, II: the chains in the order shown. Trp(2-yl) = O=C([C@H](Cc1c([*:3])[nH]c2ccccc12)N[*:1])[*:2]; X1 = O=C1CC([*:1])C(=O)N1CC1CCC(C(=O)[*:2])CC1; Leu(4R-OH,5-OH) = C[C@](O)(CO)C[C@H](N)C(=O)O; cisHyp = O=C(O)[C@@H]1C[C@H](O)CN1 A value given as a limit tells only on which side of the number the result lay.

For the molecule `CC[C@@H](C)[C@@H](NC(=O)[C@@H](CC(C)C)NC(=O)[C@H]1CCCN1)C(=O)N[C@H](Cc1ccc(O)cc1)C(=O)N[C@H](CC(C)C)C(=O)N[C@H](CCCNC(=N)N)C(=O)N[C@H](CC(C)C)C(=O)N[C@H](CC(C)C)C(=O)N[C@H](CCCNC(=N)N)C(=O)NCC(=O)N[C@H](CCC(N)=O)C(=O)N[C@H](Cc1c[nH]c2ccccc12)C(=O)N[C@H](CSC1CC(=O)N(CC2CCC(C(=O)NCCCC[C@@H]3NC(=O)[C@@H]4Cc5c([nH]c6ccccc56)SC[C@H](NC(=O)[C@@H]([C@H](C)O)NC(=O)[C@H](C)NC3=O)C(=O)N3C[C@@H](O)C[C@H]3C(=O)N[C@@H](C)C(=O)N4)CC2)C1=O)C(N)=O` (stereo partly drawn) [TP2-S-Ph] (I: H-[dP][dL][dI][dY][dL][dR][dL][dL][dR]G[dQ][dW][dC]-NH2 / II: cyclo([cisHyp]A[Trp(2-yl)]KA[dT]C); linker I:13-II:4 via X1; thioether II:3-II:7), the EC50 on pyrene-labeled actin is < 5 µM and ~6 µM. Further, the “toxicity to HeLa cells (cell viability)” value in the data set on HeLa cells (0–25 μM concentration range) is recorded as “Neither the conjugated TP2 nor TP2 alone showed any toxicity”; in the data set with HeLa cells (at 50 μM), “the conjugate did not”. Also, in the data set with human red blood cells, the “hemolysis of red blood cells” value is on record as “no hemolytic activity”. In the data set with HT1080 cells (25 μM, applied for 4 h then washed off, control 100 nM continuous CD), the “size of effect on cell migration compared with cytochalasin D control” value is listed as “at least as large as the CD control”. The “effect on migration (mean wound closure rate) compared to no treatment, one-way ANOVA” value in the data set with HT1080 cells (at 25, 12.5, 6.3, and 3.1 μM, 4 h incubation then washed, slope 1–8 h, at least 6 independent experiments) is “significant effects”.
Turning to `C=C1[C@@H](C)[C@H]2[C@H](Cc3ccccc3)NC(=O)[C@]23[C@H](OC(C)=O)/C=C/[C@@](C)(O)C(=O)[C@@H](C)C/C=C/[C@H]3[C@@H]1O` [cytochalasin D], in the data set with HT1080 cells (setting [1]), the “cell migration over the first 6 h” value is given as “little to no migration” and the “inhibition of cell movement” value is given as “inhibited cell movement completely”. In the data set with HT1080 cells (incubated for 4 h and washed away), the “effect on cell migration after wash-out” value was “no effect”. Besides, the cell migration entry in the data set with HT1080 cells (treatment, continuous, HT1080) is recorded as “some migration”.
With `C[C@@H]1NC(=O)[C@H](C[C@@](C)(O)CO)NC(=O)[C@@H]2Cc3c([nH]c4ccccc34)SC[C@H](NC(=O)[C@@H]([C@H](C)O)NC1=O)C(=O)N1C[C@@H](O)C[C@H]1C(=O)N[C@@H](C)C(=O)N2` [phalloidin] (cyclo(A[dT]C[cisHyp]A[Trp(2-yl)][Leu(4R-OH,5-OH)]); thioether 3-6 (inferred); ring closure inferred), the EC50 on pyrene-labeled actin is < 5 µM and ~3 µM. The “cytotoxic effects on HeLa cells (cell viability)” value with HeLa cells (up to 1 mM) was “no cytotoxic effects”.
